Earlier results in US10548855B2, “Memantine combinations and use” (CHASE PHARMACEUTICALS CORPORATION, priority 2016, dated 2020).

Test system: mice
Settings: water maze, 2 mg/kg

CC12CC3CC(C)(C1)CC(N)(C3)C2 [memantine, 3,5-dimethyladamantan-1-amine]
effect on scopolamine-induced learning deficits: reverses scopolamine-induced learning deficits
